Patent US10023566B2, “Dasatinib salts” (EGIS GYOGYSZERGYAR ZRT, priority 2014, dated 2018)
Counter-ions that a name gives are not always drawn. One block for each molecule: values may come before it.

Legend:
Format in all cases: physicochemical
[1] = Determination of the solubility of dasatinib salts (shake flask 37° C., HPLC); settings: 6 hour shaking, 18 hour sedimentation
Protocol: Considering the above mentioned facts our solubility measurements were carried out on three different pH values (pH 1, pH 4.5 and pH 6.8).
Determination of the Solubility of Dasatinib Salts (Measurement Conditions)
Preparation of Sample Mixture:
• 100 mg of dasatinib salt are weighed in a 20 ml Erlenmeyer flask whereupon 10 ml of medium are added and it is shaked for 6 hours at a temperature of 37° C. on 100 rpm. After sedimentation for 18 hours at a temperature of 37° C. the settled solution is filtered through a sieve with 0.45 μm pores and the solution is diluted up to 20 ml with medium.

[2] = Storage stability test: quantity of impurities by HPLC and change thereof; settings: for stability in the storage tests (in words): storage tests carried out under various conditions, thermal stress and forced stability tests
Text: In course of the thermal stress test and the forced stability test the decompositions in a pharmaceutical composition occurring during storage are constructed essentially in an accelerated manner. […] The advantageous properties of the new dasatinib salts of the present invention are significant from the point of view of the formulation of pharmaceutical compositions, the storage and the minimization of the harmful effects exerted in the human body.
The stability of the new dasatinib salts of the present invention were subjected to detailed tests.
Our results regarding the quantity of the impurities and change thereof are shown in the tables below (expressed in percentage).
Measuring conditions are the same as the determination of purity profile below.
Determination of the Impurities of Dasatinib Salts by HPLC (Measurement Conditions)

[3] = Water adsorption, DVS (dynamic vapor sorption) analysis; settings: after drying
Text: As it is disclosed in WO2007/035874 paragraph [0096] dasatinib mono HCl includes a cavity or channel, which may be partially or fully occupied by solvent or a mixture of solvent. […] Further salts disclosed in the prior art also contain solvent adsorbed on the surface or in the form of solvate. These forms are nor suitable for pharmaceutical application. […] Therefore we carried out our comparative experiments between dasatinib base monohydrate and the new salts of the present invention.

solubility ([1]; 0.1M HCl (pH 1)): 5702 µg/mL
solubility ([1]; pH = 4.5 phosphate buffer): 2805 µg/mL
solubility ([1]; pH = 6.8 phosphate buffer): 11 µg/mL
Compound: Cc1nc(Nc2ncc(C(=O)Nc3c(C)cccc3Cl)s2)cc(N2CCN(CCO)CC2)n1 [dasatinib tosilate (1:1) Form II anhydrate] [N-(2-Chloro-6-methylphenyl)-2-[6-[4-(2-hydroxyethyl)piperazin-1-yl]-2-methylpyrimidin-4-ylamino]-1,3-thiazole-5-carboxamide]

solubility ([1]; 0.1M HCl (pH 1)): 5757 µg/mL
solubility ([1]; pH = 4.5 phosphate buffer): 555 µg/mL
solubility ([1]; pH = 6.8 phosphate buffer): 156 µg/mL
Impurity Dasatinib N-oxyde (RT 12.2-12.4) ([2]; 3 week, 25° C./90% RH): 0.03%
Impurity Dasatinib imp 2 (RT 5.2) ([2]; 3 week, 25° C./90% RH): 0.11%
Impurity Dasatinib imp 3 (RT 18.9) ([2]; 3 week, 25° C./90% RH): 0.04%
Impurity Deshydroxyethyl dasatinib (RT 11.0) ([2]; 3 week, 25° C./90% RH): 0.12%
Impurity Ethylene-diamine intermedier (RT 9.0-9.3) ([2]; 3 week, 25° C./90% RH): 0.06%
Impurity Summary (%) ([2]; 3 week, 25° C./90% RH): 0.43%
Impurity, unnamed, RT 20.3 ([2]; 3 week, 25° C./90% RH): 0.07%
Impurity Dasatinib N-oxyde (RT 12.2-12.4) ([2]; 3 week, 40° C./70% RH): 0.03%
Impurity Dasatinib imp 2 (RT 5.2) ([2]; 3 week, 40° C./70% RH): 0.10%
Impurity Dasatinib imp 3 (RT 18.9) ([2]; 3 week, 40° C./70% RH): 0.03%
Impurity Deshydroxyethyl dasatinib (RT 11.0) ([2]; 3 week, 40° C./70% RH): 0.12%
Impurity Ethylene-diamine intermedier (RT 9.0-9.3) ([2]; 3 week, 40° C./70% RH): 0.08%
Impurity Summary (%) ([2]; 3 week, 40° C./70% RH): 0.43%
Impurity, unnamed, RT 20.3 ([2]; 3 week, 40° C./70% RH): 0.07%
Impurity Dasatinib imp 2 (RT 5.2) ([2]; 6 week, 25° C./90% RH): 0.10%
Impurity Dasatinib imp 3 (RT 18.9) ([2]; 6 week, 25° C./90% RH): 0.04%
Impurity Deshydroxyethyl dasatinib (RT 11.0) ([2]; 6 week, 25° C./90% RH): 0.12%
Impurity Ethylene-diamine intermedier (RT 9.0-9.3) ([2]; 6 week, 25° C./90% RH): 0.03%
Impurity Summary (%) ([2]; 6 week, 25° C./90% RH): 0.39%
Impurity, unnamed, RT 19.6 ([2]; 6 week, 25° C./90% RH): 0.02%
Impurity, unnamed, RT 20.3 ([2]; 6 week, 25° C./90% RH): 0.08%
Impurity Dasatinib N-oxyde (RT 12.2-12.4) ([2]; 6 week, 40° C./70% RH): 0.02%
Impurity Dasatinib imp 2 (RT 5.2) ([2]; 6 week, 40° C./70% RH): 0.11%
Impurity Dasatinib imp 3 (RT 18.9) ([2]; 6 week, 40° C./70% RH): 0.04%
Impurity Deshydroxyethyl dasatinib (RT 11.0) ([2]; 6 week, 40° C./70% RH): 0.12%
Impurity Ethylene-diamine intermedier (RT 9.0-9.3) ([2]; 6 week, 40° C./70% RH): 0.03%
Impurity Summary (%) ([2]; 6 week, 40° C./70% RH): 0.41%
Impurity, unnamed, RT 19.6 ([2]; 6 week, 40° C./70% RH): 0.02%
Impurity, unnamed, RT 20.3 ([2]; 6 week, 40° C./70% RH): 0.07%
Impurity Dasatinib N-oxyde (RT 12.2-12.4) ([2]; starting sample): 0.02%
Impurity Dasatinib imp 2 (RT 5.2) ([2]; starting sample): 0.11%
Impurity Dasatinib imp 3 (RT 18.9) ([2]; starting sample): 0.04%
Impurity Deshydroxyethyl dasatinib (RT 11.0) ([2]; starting sample): 0.12%
Impurity Ethylene-diamine intermedier (RT 9.0-9.3) ([2]; starting sample): 0.03%
Impurity Summary (%) ([2]; starting sample): 0.38%
Impurity, unnamed, RT 20.3 ([2]; starting sample): 0.08%
Compound: Cc1nc(Nc2ncc(C(=O)Nc3c(C)cccc3Cl)s2)cc(N2CCN(CCO)CC2)n1 [Dasatinib monohydrate, N-(2-Chloro-6-methylphenyl)-2-[6-[4-(2-hydroxyethyl)piperazin-1-yl]-2-methylpyrimidin-4-ylamino]-1,3-thiazole-5-carboxamide, reference compound]
stability in the storage tests (in words) ([2]; listed as dasatinib base monohydrate): most stable and suitable form disclosed in the prior art

solubility ([1]; 0.1M HCl (pH 1)): 8533 µg/mL
solubility ([1]; pH = 4.5 phosphate buffer): 6194 µg/mL
solubility ([1]; pH = 6.8 phosphate buffer): 5 µg/mL
Impurity Dasatinib N-oxyde (RT 12.2-12.4) ([2]; 3 week, 25° C./90% RH): 0.03%
Impurity Deshydroxyethyl dasatinib (RT 11.0) ([2]; 3 week, 25° C./90% RH): 0.03%
Impurity Ethylene-diamine intermedier (RT 9.0-9.3) ([2]; 3 week, 25° C./90% RH): 0.02%
Impurity Summary (%) ([2]; 3 week, 25° C./90% RH): 0.11%
Impurity, unnamed, RT 15.5 ([2]; 3 week, 25° C./90% RH): 0.03%
Impurity Dasatinib N-oxyde (RT 12.2-12.4) ([2]; 3 week, 40° C./70% RH): 0.03%
Impurity Deshydroxyethyl dasatinib (RT 11.0) ([2]; 3 week, 40° C./70% RH): 0.03%
Impurity Summary (%) ([2]; 3 week, 40° C./70% RH): 0.09%
Impurity, unnamed, RT 15.5 ([2]; 3 week, 40° C./70% RH): 0.03%
Impurity Dasatinib N-oxyde (RT 12.2-12.4) ([2]; 6 week, 25° C./90% RH): 0.03%
Impurity Deshydroxyethyl dasatinib (RT 11.0) ([2]; 6 week, 25° C./90% RH): 0.03%
Impurity Summary (%) ([2]; 6 week, 25° C./90% RH): 0.06%
Impurity Dasatinib N-oxyde (RT 12.2-12.4) ([2]; 6 week, 40° C./70% RH): 0.03%
Impurity Deshydroxyethyl dasatinib (RT 11.0) ([2]; 6 week, 40° C./70% RH): 0.03%
Impurity Summary (%) ([2]; 6 week, 40° C./70% RH): 0.06%
Impurity Dasatinib N-oxyde (RT 12.2-12.4) ([2]; starting sample): 0.03%
Impurity Deshydroxyethyl dasatinib (RT 11.0) ([2]; starting sample): 0.03%
Impurity Summary (%) ([2]; starting sample): 0.09%
Impurity, unnamed, RT 15.5 ([2]; starting sample): 0.03%
stability in the storage tests (in words) [2]: particularly stable
Compound: Cc1nc(Nc2ncc(C(=O)Nc3c(C)cccc3Cl)s2)cc(N2CCN(CCO)CC2)n1 [dasatinib cyclamic acid (1:1) salt Form I] [N-(2-Chloro-6-methylphenyl)-2-[6-[4-(2-hydroxyethyl)piperazin-1-yl]-2-methylpyrimidin-4-ylamino]-1,3-thiazole-5-carboxamide]

water adsorption property (in words) [3]: tends to adsorb water
Compound: Cc1nc(Nc2ncc(C(=O)Nc3c(C)cccc3Cl)s2)cc(N2CCN(CCO)CC2)n1 [dasatinib diHCl salt, N-(2-Chloro-6-methylphenyl)-2-[6-[4-(2-hydroxyethyl)piperazin-1-yl]-2-methylpyrimidin-4-ylamino]-1,3-thiazole-5-carboxamide]

solubility ([1]; pH = 4.5 phosphate buffer): 805 µg/mL
solubility ([1]; pH = 6.8 phosphate buffer): 17 µg/mL
Compound: Cc1nc(Nc2ncc(C(=O)Nc3c(C)cccc3Cl)s2)cc(N2CCN(CCO)CC2)n1 [dasatinib mesilate (1:2), N-(2-Chloro-6-methylphenyl)-2-[6-[4-(2-hydroxyethyl)piperazin-1-yl]-2-methylpyrimidin-4-ylamino]-1,3-thiazole-5-carboxamide]
